Test results: patent US12398107B2, “Fungicidal nitroanilino substituted pyrazoles” (FMC Corporation, priority 2018, dated 2025)

Key:
Type in all cases: in vivo
Phakopsora pachyrhizi = experiment: Test D: Asian soybean rust, preventive spray on soybean seedlings; conditions: 100 = 100% disease control, 0 = no control; for Test D disease control rating (Asian soybean rust) / pest or weed control at 50 ppm: 50 ppm
Description: General protocol for preparing test suspensions for Tests A-F: the test compounds were first dissolved in acetone in an amount equal to 3% of the final volume and then suspended at the desired concentration (in ppm) in acetone and purified water (50/50 mix by volume) containing 250 ppm of the surfactant PEG400 (polyhydric alcohol esters). The resulting test suspensions were then used in Tests A-F.
The test solution was sprayed to the point of run-off on soybean seedlings. The following day the seedlings were inoculated with a spore suspension of Phakopsora pachyrhizi (the causal agent of Asian soybean rust) and incubated in a saturated atmosphere at 22° C. for 24 h and then moved to a growth chamber at 22° C. for 8 days, after which time visual disease ratings were made.
A rating of 100 indicates 100% disease control and a rating of 0 indicates no disease control (relative to the controls). A dash (-) indicates the compound was not tested.

Alternaria solani = experiment: Test F: tomato early blight, preventive spray on tomato seedlings; conditions: 100 = 100% disease control, 0 = no control; for Test F disease control rating (tomato early blight) / pest or weed control at 50 ppm: 50 ppm
Description: (§1) General protocol for preparing test suspensions for Tests A-F: the test compounds were first dissolved in acetone in an amount equal to 3% of the final volume and then suspended at the desired concentration (in ppm) in acetone and purified water (50/50 mix by volume) containing 250 ppm of the surfactant PEG400 (polyhydric alcohol esters). The resulting test suspensions were then used in Tests A-F. The test suspension was sprayed to the point of run-off on tomato seedlings. The following day the seedlings were inoculated with a spore suspension of Alternaria solani (the causal agent of tomato early blight) and incubated in a saturated atmosphere at 27° C. for 48 h, and then moved to a growth chamber at 20° C. for 3 days, after which time visual disease ratings were made. A rating of 100 indicates 100% disease control and a rating of 0 indicates no disease control (relative to the controls). A dash (-) indicates the compound was not tested.

[1] = test system: Blumeria graminis f. sp. tritici; experiment: Test C: wheat powdery mildew, preventive spray on wheat seedlings; conditions: rated after 8 days, 100 = 100% disease control, 0 = no control; for Test C disease control rating (wheat powdery mildew) / pest or weed control at 50 ppm: 50 ppm
Description: as §1, with “on wheat” for “on tomato”, “spore dust” for “spore suspension”, “of Blumeria graminis f. sp. tritici, (also known as Erysiphe graminis f. sp. tritici, the” for “of Alternaria solani (the”, “of wheat powdery mildew)” for “of tomato early blight)”, “in” for “in a saturated atmosphere at 27° C. for 48 h, and then moved to”, “for 8” for “for 3”

[2] = test system: Puccinia recondita f. sp. tritici; experiment: Test B: wheat leaf rust, preventive spray on wheat seedlings; conditions: 100 = 100% disease control, 0 = no control relative to controls; for Test B disease control rating (wheat leaf rust) / pest or weed control at 50 ppm: 50 ppm
Description: General protocol for preparing test suspensions for Tests A-F: the test compounds were first dissolved in acetone in an amount equal to 3% of the final volume and then suspended at the desired concentration (in ppm) in acetone and purified water (50/50 mix by volume) containing 250 ppm of the surfactant PEG400 (polyhydric alcohol esters). The resulting test suspensions were then used in Tests A-F. The test solution was sprayed to the point of run-off on wheat seedlings. The following day the seedlings were inoculated with a spore suspension of Puccinia recondita f. sp. tritici (the causal agent of wheat leaf rust) and incubated in a saturated atmosphere at 20° C. for 24 h, and then moved to a growth chamber at 20° C. for 7 days, after which time disease ratings were made. A rating of 100 indicates 100% disease control and a rating of 0 indicates no disease control (relative to the controls). A dash (-) indicates the compound was not tested.

Septoria tritici = experiment: Test A: wheat leaf blotch, preventive spray on wheat seedlings; conditions: 100 = 100% disease control, 0 = no control relative to controls; for Test A disease control rating (wheat leaf blotch) / pest or weed control at 50 ppm: 50 ppm
Description: General protocol for preparing test suspensions for Tests A-F: the test compounds were first dissolved in acetone in an amount equal to 3% of the final volume and then suspended at the desired concentration (in ppm) in acetone and purified water (50/50 mix by volume) containing 250 ppm of the surfactant PEG400 (polyhydric alcohol esters). The resulting test suspensions were then used in Tests A-F. The test solution was sprayed to the point of run-off on wheat seedlings. The following day the seedlings were inoculated with a spore suspension of Septoria tritici (the causal agent of wheat leaf blotch) and incubated in a saturated atmosphere at 24° C. for 48 h, and then moved to a growth chamber at 20° C. for 17 days, after which time disease ratings were made. A rating of 100 indicates 100% disease control and a rating of 0 indicates no disease control (relative to the controls). A dash (-) indicates the compound was not tested.

Botrytis cinerea = experiment: Test E: tomato Botrytis, preventive spray on tomato seedlings; conditions: 100 = 100% disease control, 0 = no control; for Test E disease control rating (tomato Botrytis) / pest or weed control at 50 ppm: 50 ppm
Description: as §1, with “Botrytis cinerea” for “Alternaria solani”, “Botrytis)” for “early blight)”, “20°” for “27°”, “24°” for “20°”

[3] = Phakopsora pachyrhizi, read-out: Test D disease control rating (Asian soybean rust)
[4] = Alternaria solani, read-out: Test F disease control rating (tomato early blight)
[5] = Blumeria graminis, 192 h, read-out: Test C disease control rating (wheat powdery mildew)
[6] = read-out: Test B disease control rating (wheat leaf rust)
[7] = Zymoseptoria tritici, read-out: Test A disease control rating (wheat leaf blotch)
[8] = Botrytis cinerea, read-out: Test E disease control rating (tomato Botrytis)

| Structure (SMILES) | Test D disease control rating (Asian soybean rust) (Phakopsora pachyrhizi) [%] | Test F disease control rating (tomato early blight) (Alternaria solani) [%] | Test C disease control rating (wheat powdery mildew) [1] [%] | Test B disease control rating (wheat leaf rust) [2] [%] | Test A disease control rating (wheat leaf blotch) (Septoria tritici) [%] | Test E disease control rating (tomato Botrytis) (Botrytis cinerea) [%] | pest or weed control at 10 ppm (Phakopsora pachyrhizi; Phakopsora pachyrhizi, 10 ppm, read-out: Test D disease control rating (Asian soybean rust)) [%] | pest or weed control at 50 ppm (Phakopsora pachyrhizi; [3]) [%] | pest or weed control at 10 ppm (Alternaria solani; Alternaria solani, 10 ppm, read-out: Test F disease control rating (tomato early blight)) [%] | pest or weed control at 50 ppm (Alternaria solani; [4]) [%] | pest or weed control at 10 ppm ([1]; Blumeria graminis, 192 h, 10 ppm, read-out: Test C disease control rating (wheat powdery mildew)) [%] | pest or weed control at 50 ppm [1, 5] [%] | pest or weed control at 10 ppm ([2]; 10 ppm, read-out: Test B disease control rating (wheat leaf rust)) [%] | pest or weed control at 50 ppm [2, 6] [%] | pest or weed control at 10 ppm (Septoria tritici; Zymoseptoria tritici, 10 ppm, read-out: Test A disease control rating (wheat leaf blotch)) [%] | pest or weed control at 50 ppm (Septoria tritici; [7]) [%] | pest or weed control at 10 ppm (Botrytis cinerea; Botrytis cinerea, 10 ppm, read-out: Test E disease control rating (tomato Botrytis)) [%] | pest or weed control at 50 ppm (Botrytis cinerea; [8]) [%] |
| --- | --- | --- | --- | --- | --- | --- | --- | --- | --- | --- | --- | --- | --- | --- | --- | --- | --- | --- |
| Cc1nn(C)c(Nc2ccc(F)cc2[N+](=O)[O-])c1-c1c(Cl)cccc1Cl [Compound 54] | 0 | 0 | 93 | 91 | 100 | 21 | – | – | – | – | – | – | – | – | – | – | – | – |
| Cc1nn(C)c(Nc2c(F)cccc2[N+](=O)[O-])c1-c1ccc(F)cc1Cl [Compound 112, 4-(2-chloro-4-fluorophenyl)-N-(2-fluoro-6-nitrophenyl)-1,3-dimethyl-1H-pyrazol-5-amine] | – | – | – | – | – | – | 52 | 99 | 98 | 100 | 98 | 100 | 100 | 100 | 72 | 88 | 100 | 100 |
| Cc1nn(C)c(Nc2ccccc2[N+](=O)[O-])c1-c1c(F)cccc1F [Compound 135] | 0 | 0 | 93 | 68 | 100 | 99 | – | – | – | – | – | – | – | – | – | – | – | – |
| Cc1ccc(Nc2c(-c3ccc(C#N)cc3Cl)c(C)nn2C)c([N+](=O)[O-])c1 [Compound 14] | 48 | 83 | 83 | 97 | 100 | 96 | – | – | – | – | – | – | – | – | – | – | – | – |
| Cc1nn(C)c(Nc2c(F)cc(Br)cc2[N+](=O)[O-])c1-c1ccc(F)cc1Cl [Compound 61, N-(4-bromo-2-fluoro-6-nitrophenyl)-4-(2-chloro-4-fluorophenyl)-1,3-dimethyl-1H-pyrazol-5-amine] | – | – | – | – | – | – | – | 84 | – | 99 | – | 99 | – | 100 | – | 100 | – | 99 |
| Cc1nn(C)c(Nc2c(F)cc(Cl)cc2[N+](=O)[O-])c1-c1ccc(C#N)cc1Cl [Compound 115] | 77 | 99 | 94 | 100 | 100 | 99 | – | – | – | – | – | – | – | – | – | – | – | – |
| Cc1nn(C)c(Nc2ccc(Cl)cc2[N+](=O)[O-])c1-c1ccc(F)cc1F [Compound 78] | 0 | 0 | 95 | 89 | 100 | 68 | – | – | – | – | – | – | – | – | – | – | – | – |
| COc1ccc(Nc2c(-c3ccc(C#N)cc3Cl)c(C)nn2C)c([N+](=O)[O-])c1 [Compound 124] | 25 | 99 | 99 | 100 | 100 | 100 | – | – | – | – | – | – | – | – | – | – | – | – |
| Cc1cccc([N+](=O)[O-])c1Nc1c(-c2ccc(F)cc2Br)c(C)nn1C [Compound 42] | 0 | 0 | 96 | 100 | 100 | 91 | – | – | – | – | – | – | – | – | – | – | – | – |
| COc1cc(F)c(-c2c(C)nn(C)c2Nc2c(F)cc(F)cc2[N+](=O)[O-])c(F)c1 [Compound 84] | 48 | 99 | 99 | 100 | 100 | 90 | – | – | – | – | – | – | – | – | – | – | – | – |
| COc1cc(F)c(-c2c(C)nn(C)c2Nc2ccccc2[N+](=O)[O-])c(F)c1 [Compound 147] | 0 | 99 | 97 | 86 | 96 | 100 | – | – | – | – | – | – | – | – | – | – | – | – |
| Cc1nn(C)c(Nc2c(F)cccc2[N+](=O)[O-])c1-c1c(Cl)cccc1Cl [Compound 53] | 0 | 98 | 98 | 100 | 100 | 98 | – | – | – | – | – | – | – | – | – | – | – | – |
